Test results as given in patent US20070053941A1, “Vermin repellent” (priority 2003, published 2007).

Columns and labels:
moles [1] = test: Field test: IMP vials buried in mole tunnels at a summer residence lawn (Example 1); assay type: in vivo, Talpa europaea
Method: Locality: A summer residence in Ängelholm in the south of Sweden.
Active substance: 100 μl 20% IMP in hexane in a sealed glass vial which was crushed at application in a mole tunnel.

moles [2] = test: Garden test: fenced-in 100 square meter zone treated with IMP versus untreated control area (Example 2); assay type: in vivo, Talpa europaea
Text: In a garden with an area of 700 square meters with notable mole activity, a zone with an area of 100 square meters was fenced in and treated with IMP under very favourable conditions.

COc1nccnc1C(C)C [IMP, 2-isopropyl-3-methoxy-pyrazine]
Repelling effect on moles (comment on the observations) (moles [1]; Example 1, overall conclusion): has a repelling effect on moles | Observed effect: mole hills (moles [1]; January 2003, migration back after treatment in June): about 10 mole hills | Observed effect: new mole hills in direction from the vials (moles [1]; June 15, after 2 vials buried June 11 and 3 vials June 14 (100 μl 20% IMP in hexane each), about 20 mole hills at beginning of June): 4 new mole hills in direction | Observed effect: new mole hills (moles [1]; June 19, after 5 vials buried): 2 new mole hills | Behaviour of moles in the treated area (moles [2]; Example 2, overall conclusion): decidedly disturbed | Mole hills observed in the treated area (moles [2]; after 4 days, 10 from the start, untreated control area 10 as compared with 6 from the start): 21 mole hills
